Results reported in the supplement of paper PMC11061612.

Experiments:
[1] = test system: CAL-39 (Other Solid Carcinomas); assay: Bliss excess, mean over the matrix (fraction); higher = more synergy
Method in brief: (§1)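 After 24 hours at 37°C and 5% CO2 in 1536-well plates, cells in DMEM/F12 or RPMI plus 10% FBS received two-drug dose matrices for 72 hours. Viability came from CellTiter-Glo 2.0 luminescence and was scaled as inhibition, anchored at 0 by vehicle wells and at 1 by blank wells. Combination Emax is taken as the second-highest inhibition in the matrix, and Bliss excess as the observed combination effect less EA + EB − EA·EB, with EA and EB the single-agent effects.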

CS1 (Chondrosarcoma) = assay: as above
Method in brief: as §1

D-392MG (Glioblastoma) = assay: as above
Method in brief: as §1

[2] = test system: DOK (Oral Cavity Carcinoma); assay: as above
Method in brief: as §1

[3] = test system: HCT-116 (Colorectal Carcinoma); assay: as above
Method in brief: as §1

[4] = test system: HLE (Hepatocellular Carcinoma); assay: as above
Method in brief: as §1

[5] = test system: MEG-01 (Chronic Myelogenous Leukemia); assay: as above
Method in brief: as §1

[6] = test system: P31-FUJ (Acute Myeloid Leukemia); assay: as above
Method in brief: as §1

[7] = test system: SK-UT-1 (Other Solid Carcinomas); assay: as above
Method in brief: as §1

[8] = test system: SNG-M (Endometrial Carcinoma); assay: as above
Method in brief: as §1

[9] = test system: SW948 (Colorectal Carcinoma); assay: as above
Method in brief: as §1

[10] = test system: TC-YIK (Other Solid Carcinomas); assay: as above
Method in brief: as §1

[11] = test system: YT (Other Blood Carcinomas); assay: as above
Method in brief: as §1

[12] = test system: CAL-39 (Other Solid Carcinomas); assay: combination Emax (second highest fraction inhibited in the dose matrix, 72 h); higher = more inhibition; extreme values may be limits of the assay
Method in brief: as §1

[13] = test system: DOK (Oral Cavity Carcinoma); assay: as above
Method in brief: as §1

H4 (Low Grade Glioma) = assay: as above
Method in brief: as §1

HCC38 (Breast Carcinoma) = assay: as above
Method in brief: as §1

[14] = test system: NOMO-1 (Acute Myeloid Leukemia); assay: as above
Method in brief: as §1

[15] = test system: SW948 (Colorectal Carcinoma); assay: as above
Method in brief: as §1

[16] = test system: TC-YIK (Other Solid Carcinomas); assay: as above
Method in brief: as §1
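For Bliss excess, mean over the matrix in this document: after 72 h of two-drug dosing.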

Row | SMILES | Bliss excess [1] | Bliss excess (CS1 (Chondrosarcoma)) | Bliss excess (D-392MG (Glioblastoma)) | Bliss excess [2] | Bliss excess [3] | Bliss excess [4] | Bliss excess [5] | Bliss excess [6] | Bliss excess [7] | Bliss excess [8] | Bliss excess [9] | Bliss excess [10] | Bliss excess [11] | combination Emax [12] | combination Emax [13] | combination Emax (H4 (Low Grade Glioma)) | combination Emax (HCC38 (Breast Carcinoma)) | combination Emax [14] | combination Emax [15] | combination Emax [16]
1 | C=CCn1c(=O)c2cnc(Nc3ccc(N4CCN(C)CC4)cc3)nc2n1-c1cccc(C(C)(C)O)n1 [AZD1775] + CCc1c2c(nc3ccc(O)cc13)-c1cc3c(c(=O)n1C2)COC(=O)[C@]3(O)CC [SN-38] (first compound max 1 µM, partner max 0.3 µM) | -0.0225 | -0.0705 | -0.0704 | -0.0096 | -0.0302 | -0.0436 | -0.0251 | 0.0049 | -0.032 | -0.0087 | 0.141 | -0.0451 | -0.0418 | 0.947 | 0.745 | 0.908 | 0.751 | 0.992 | 0.862 | 1
2 | C=CCn1c(=O)c2cnc(Nc3ccc(N4CCN(C)CC4)cc3)nc2n1-c1cccc(C(C)(C)O)n1 [AZD1775] + Nc1ccn([C@@H]2O[C@H](CO)[C@@H](O)C2(F)F)c(=O)n1 [Gemcitabine] (first compound max 1 µM, partner max 0.3 µM) | 0.0328 | -0.0007 | 0.013 | -0.0216 | -0.0342 | 0.0609 | -0.0001 | 0.0797 | -0.0194 | -0.0314 | 0.104 | -0.0642 | 0.0337 | 0.914 | 0.66 | 0.949 | 0.747 | 0.992 | 0.879 | 0.865
3 | CN(CCO)CC[C@H](CSc1ccccc1)Nc1ccc(S(=O)(=O)NC(=O)c2ccc(N3CCC([C@@H](O)c4ccccc4-c4ccc(Cl)cc4)CC3)cc2)cc1S(=O)(=O)C(F)(F)F [AZD4320] + CC(=O)O[C@H]1C(=O)[C@@]2(C)[C@H]([C@H](OC(=O)c3ccccc3)[C@]3(O)C[C@H](OC(=O)[C@H](O)[C@@H](NC(=O)c4ccccc4)c4ccccc4)C(C)=C1C3(C)C)[C@]1(OC(C)=O)CO[C@@H]1C[C@@H]2O [Paclitaxel] (first compound max 1 µM, 7x7, partner max 3 µM) | 0.0298 | 0.041 | 0.129 | 0.0565 | 0.0182 | -0.0036 | -0.0006 | -0.0004 | -0.0007 | 0.0275 | -0.0074 | 0.0183 | -0.0079 | 1 | 0.99 | 1 | 0.77 | 0.985 | 0.942 | 1
4 | CN(CCO)CC[C@H](CSc1ccccc1)Nc1ccc(S(=O)(=O)NC(=O)c2ccc(N3CCC([C@@H](O)c4ccccc4-c4ccc(Cl)cc4)CC3)cc2)cc1S(=O)(=O)C(F)(F)F [AZD4320] + CS(=O)(=O)CCNCc1ccc(-c2ccc3ncnc(Nc4ccc(OCc5cccc(F)c5)c(Cl)c4)c3c2)o1 [Lapatinib] (first compound max 1 µM, 7x7, partner max 10 µM) | 0.0372 | 0.0095 | -0.0269 | 0.0402 | 0.0085 | 0.0535 | 0.103 | 0.109 | 0.006 | -0.0091 | 0.0049 | 0.0065 | 0.0643 | 0.97 | 0.982 | 0.93 | 0.913 | 0.709 | 0.96 | 1
5 | CN(CCO)CC[C@H](CSc1ccccc1)Nc1ccc(S(=O)(=O)NC(=O)c2ccc(N3CCC([C@@H](O)c4ccccc4-c4ccc(Cl)cc4)CC3)cc2)cc1S(=O)(=O)C(F)(F)F [AZD4320] + Nc1ccn([C@@H]2O[C@H](CO)[C@@H](O)C2(F)F)c(=O)n1 [Gemcitabine] (first compound max 1 µM, 7x7, partner max 0.3 µM) | 0.0174 | 0.0187 | 0.0921 | 0.0797 | 0.0111 | 0.0579 | 0.0059 | -0.0492 | 0.0159 | -0.0568 | 0.0114 | -0.0091 | -0.0591 | 0.97 | 0.859 | 0.988 | 0.813 | 0.987 | 0.524 | 1
6 | Cc1c2c(nn1C)CSCc1cc(n(C)n1)CSc1cc(c3ccccc3c1)OCCCc1c(C(=O)O)n(C)c3c-2c(Cl)ccc13 [AZD5991] + CC(=O)O[C@H]1C(=O)[C@@]2(C)[C@H]([C@H](OC(=O)c3ccccc3)[C@]3(O)C[C@H](OC(=O)[C@H](O)[C@@H](NC(=O)c4ccccc4)c4ccccc4)C(C)=C1C3(C)C)[C@]1(OC(C)=O)CO[C@@H]1C[C@@H]2O [Paclitaxel] (first compound max 1 µM, 7x7, partner max 3 µM) | -0.0154 | -0.012 | 0.046 | -0.0004 | -0.0211 | -0.0411 | 0.12 | -0.0253 | 0.008 | 0.0374 | -0.0421 | -0.0709 | -0.0159 | 0.994 | 0.977 | 0.995 | 0.571 | 1 | 0.884 | 0.928
7 | Cc1c2c(nn1C)CSCc1cc(n(C)n1)CSc1cc(c3ccccc3c1)OCCCc1c(C(=O)O)n(C)c3c-2c(Cl)ccc13 [AZD5991] + CS(=O)(=O)CCNCc1ccc(-c2ccc3ncnc(Nc4ccc(OCc5cccc(F)c5)c(Cl)c4)c3c2)o1 [Lapatinib] (first compound max 1 µM, 7x7, partner max 10 µM) | 0.0372 | -0.0458 | -0.0727 | 0.111 | -0.0365 | 0.0311 | -0.0318 | -0.0445 | 0.032 | -0.0254 | -0.0171 | -0.0418 | 0.0331 | 0.998 | 0.987 | 0.484 | 0.366 | 0.88 | 0.26 | 0.26
8 | Cc1c2c(nn1C)CSCc1cc(n(C)n1)CSc1cc(c3ccccc3c1)OCCCc1c(C(=O)O)n(C)c3c-2c(Cl)ccc13 [AZD5991] + Nc1ccn([C@@H]2O[C@H](CO)[C@@H](O)C2(F)F)c(=O)n1 [Gemcitabine] (first compound max 1 µM, 7x7, partner max 0.3 µM) | 0.0269 | -0.0411 | -0.112 | -0.0008 | -0.0854 | 0.0249 | -0.0412 | 0.0115 | -0.0367 | -0.0174 | 0.0016 | -0.0315 | 0.0413 | 0.899 | 0.684 | 0.949 | 0.711 | 0.997 | 0.334 | 0.877
9 | C[C@@H]1COCCN1c1cc(C2([S@](C)(=N)=O)CC2)nc(-c2ccnc3[nH]ccc23)n1 [AZD6738] + C1CC(C1)(C(=O)[O-])C(=O)[O-].N.N.[Pt+2] [Carboplatin] (first compound max 10 µM, 7x7, partner max 10 µM) | -0.0128 | -0.0674 | -0.0311 | 0.0086 | 0.0014 | 0.0173 | -0.0513 | -0.0078 | -0.0214 | -0.0448 | -0.0659 | -0.0631 | -0.0397 | 0.609 | 0.459 | 0.708 | 0.52 | 0.946 | 0.566 | 0.802
10 | C[C@@H]1COCCN1c1cc(C2([S@](C)(=N)=O)CC2)nc(-c2ccnc3[nH]ccc23)n1 [AZD6738] + Nc1ccn([C@@H]2O[C@H](CO)[C@@H](O)C2(F)F)c(=O)n1 [Gemcitabine] (first compound max 10 µM, 7x7, partner max 0.3 µM) | 0.0523 | 0.075 | -0.0224 | 0.0785 | 0.0252 | 0.105 | -0.0258 | 0.0545 | 0.0317 | -0.0277 | 0.0448 | -0.0046 | 0.124 | 0.961 | 0.782 | 0.957 | 0.744 | 1 | 0.873 | 0.893
11 | Cc1cc2ncnn2cc1Nc1ncc2c(n1)n(C1CCOCC1)c(=O)n2C [AZD7648] + COc1cc([C@@H]2c3cc4c(cc3[C@@H](O[C@@H]3O[C@@H]5CO[C@@H](C)O[C@H]5[C@H](O)[C@H]3O)[C@H]3COC(=O)[C@H]23)OCO4)cc(OC)c1O [Etoposide] (first compound max 10 µM, 7x7, partner max 10 µM) | 0.0364 | 0.017 | 0.0658 | 0.109 | 0.13 | 0.116 | 0.102 | 0.101 | 0.117 | 0.157 | -0.0456 | 0.0886 | 0.0495 | 0.701 | 0.572 | 0.756 | 0.486 | 0.98 | 0.524 | 0.976
12 | C[C@@H](Nc1cc(F)cc(F)c1)c1cc(C(=O)N(C)C)cc2c(=O)cc(N3CCOCC3)oc12 [AZD8186] + C1CN(CCC1(C(=O)N[C@@H](CCO)C2=CC=C(C=C2)Cl)N)C3=NC=NC4=C3C=CN4 [AZD5363] (first compound max 10 µM, 7x7, partner max 10 µM) | 0.0492 | -0.0711 | -0.122 | -0.0231 | -0.0362 | 0.0045 | -0.0906 | -0.03 | 0.0224 | -0.0046 | 0.0414 | -0.0292 | -0.0175 | 0.667 | 0.655 | 0.597 | 0.262 | 0.45 | 0.656 | 0.294
